Drawing on publication PMC5494963 (Chemical research in toxicology, 2011), this text covers Ki for one compound.

The test concerns the target cytochrome c oxidase (complex IV) (Bos taurus, UniProt P00396). Description: spectrophotometric ferrocytochrome c oxidation at […] nm. Format: biochemical.

For `S` [sulfide], the Ki worked out at 0.085 µM.

As usually defined, the Ki is a measure of affinity in units of concentration, obtained from inhibition or displacement. Read a low Ki as higher affinity.
